Test results as given in ChEMBL document CHEMBL1122712, “[(E)-1-[123I]Iodo-1-penten-5-yl]triphenylphosphonium iodide: convenient preparation of a potentially useful myocardial perfusion agent” (J Med Chem, 1984).
Several values for one entry are separate records, joined by “and”; a condition that tells them apart may be missing. Equal values may be shown once.

How the values were obtained:
Type in all cases: ADME, organism-based
Rattus norvegicus [1] = experiment: Distribution of radioactivity in the female rat lung tissues after intravenous administration after 1 day was determined; details: in vivo, 24 h
Rattus norvegicus [2] = experiment: Distribution of radioactivity in the female rat kidney tissues after intravenous administration after 3 days was determined; details: in vivo, 72 h
Rattus norvegicus [3] = experiment: Distribution of radioactivity in the female rat lung tissues after intravenous administration after 3 days was determined; details: in vivo, 72 h
Rattus norvegicus [4] = experiment: Distribution of radioactivity in the female rat liver tissues after intravenous administration after 60 min was determined; details: in vivo, 1 h
Rattus norvegicus [5] = experiment: Distribution of radioactivity in the female rat heart tissues after intravenous administration after 3h was determined; details: in vivo
Rattus norvegicus [6] = experiment: Distribution of radioactivity in the female rat lung tissues after intravenous administration after 3h was determined; details: in vivo
Rattus norvegicus [7] = experiment: Distribution of radioactivity in the female rat kidney tissues after intravenous administration after 60 min was determined; details: in vivo, 1 h
Rattus norvegicus [8] = experiment: Distribution of radioactivity in the female rat heart tissues after intravenous administration after 5 min was determined; details: in vivo
Rattus norvegicus [9] = experiment: Distribution of radioactivity in the female rat heart tissues after intravenous administration after 1 day was determined; details: in vivo, 24 h
Rattus norvegicus [10] = experiment: Distribution of radioactivity in the female rat kidney tissues after intravenous administration after 3h was determined; details: in vivo
Rattus norvegicus [11] = experiment: Distribution of radioactivity in the female liver rat tissues after intravenous administration after 30 min was determined; details: in vivo, 0.5 h
Rattus norvegicus [12] = experiment: Distribution of radioactivity in the female rat lung tissues after intravenous administration after 60 min was determined; details: in vivo, 1 h
Rattus norvegicus [13] = experiment: Distribution of radioactivity in the female rat blood tissues after intravenous administration after 1 day was determined; details: in vivo, 24 h
Rattus norvegicus [14] = experiment: Distribution of radioactivity in the female rat liver tissues after intravenous administration after 3 days was determined; details: in vivo, 72 h
Rattus norvegicus [15] = experiment: Distribution of radioactivity in the female rat lung tissues after intravenous administration after 30 min was determined; details: in vivo, 0.5 h
Rattus norvegicus [16] = experiment: Distribution of radioactivity in the female rat blood tissues after intravenous administration after 3 days was determined; details: in vivo, 72 h
Rattus norvegicus [17] = experiment: Distribution of radioactivity in the female rat kidney tissues after intravenous administration after 1 day was determined; details: in vivo, 24 h
Rattus norvegicus [18] = experiment: Distribution of radioactivity in the female rat kidney tissues after intravenous administration after 5 min was determined; details: in vivo
Rattus norvegicus [19] = experiment: Distribution of radioactivity in the female rat lung tissues after intravenous administration after 5 min was determined; details: in vivo
Rattus norvegicus [20] = experiment: Distribution of radioactivity in the female rat liver tissues after intravenous administration after 30 min was determined; details: in vivo, 0.5 h
Rattus norvegicus [21] = experiment: Distribution of radioactivity in the female rat heart tissues after intravenous administration after 3 days was determined; details: in vivo, 72 h
Rattus norvegicus [22] = experiment: Distribution of radioactivity in the female rat blood tissues after intravenous administration after 5 min was determined; details: in vivo
Rattus norvegicus [23] = experiment: Distribution of radioactivity in the female rat liver tissues after intravenous administration after 1 day was determined; details: in vivo, 24 h
Rattus norvegicus [24] = experiment: Distribution of radioactivity in the female rat blood tissues after intravenous administration after 60 min was determined; details: in vivo, 1 h
Rattus norvegicus [25] = experiment: Distribution of radioactivity in the female heart rat tissues after intravenous administration after 3 days was determined; details: in vivo, 72 h
Rattus norvegicus [26] = experiment: Distribution of radioactivity in the female rat liver tissues after intravenous administration after 3h was determined; details: in vivo
Rattus norvegicus [27] = experiment: Distribution of radioactivity in the female rat blood tissues after intravenous administration after 30 min was determined; details: in vivo, 0.5 h
Rattus norvegicus [28] = experiment: Distribution of radioactivity in the female rat kidney tissues after intravenous administration after 30 min was determined; details: in vivo, 0.5 h
Rattus norvegicus [29] = experiment: Distribution of radioactivity in the female rat heart tissues after intravenous administration after 30 min was determined; details: in vivo, 0.5 h
Rattus norvegicus [30] = experiment: Distribution of radioactivity in the female rat heart tissues after intravenous administration after 60 min was determined; details: in vivo, 1 h
Rattus norvegicus [31] = experiment: Distribution of radioactivity in the female rat blood tissues after intravenous administration after 3h was determined; details: in vivo

`I/C=C/CCC[P+](c1ccccc1)(c1ccccc1)c1ccccc1.[I-]` was tested, and the Activity (Rattus norvegicus [1]) was 0.19% and 0.17%, the Activity (Rattus norvegicus [2]) was 0.22% and 0.15% and the Activity (Rattus norvegicus [3]) was 0.102% and 0.91%. For the same molecule, the Activity (Rattus norvegicus [4]) was 2.64% and 0.25%, the Activity (Rattus norvegicus [5]) was 1.54% and 2.21% and the Activity (Rattus norvegicus [6]) was 0.61% and 0.49%. The Activity (Rattus norvegicus [7]) was 7.95% and 5.06%, the Activity (Rattus norvegicus [8]) was 1.49% and 2.38% and the Activity (Rattus norvegicus [9]) was 1.18% and 1.58%. For the same molecule, the Activity (Rattus norvegicus [10]) was 4.38% and 2.75%, the Activity (Rattus norvegicus [11]) was 5.59% and the Activity (Rattus norvegicus [12]) was 0.75% and 0.65%. The Activity (Rattus norvegicus [13]) was 0.2% and 0.01%, the Activity (Rattus norvegicus [14]) was 0.13% and 0.019% and the Activity (Rattus norvegicus [15]) was 0.79% and 0.64%. For the same molecule, the Activity (Rattus norvegicus [16]) was 0.093% and 0.009%, the Activity (Rattus norvegicus [17]) was 0.79% and 0.46% and the Activity (Rattus norvegicus [18]) was 13.72% and 7.08%. The Activity (Rattus norvegicus [19]) was 0.89% and 0.75%, the Activity (Rattus norvegicus [20]) was 0.75% and the Activity (Rattus norvegicus [21]) was 1%. The Activity (Rattus norvegicus [22]) was 1.58% and 0.14%, the Activity (Rattus norvegicus [23]) was 0.18% and 0.02% and the Activity (Rattus norvegicus [24]) was 1.14% and 0.11%. For the same molecule, the Activity (Rattus norvegicus [25]) was 0.64%, the Activity (Rattus norvegicus [26]) was 0.74% and 0.09% and the Activity (Rattus norvegicus [27]) was 1.59% and 0.15%. For the same molecule, the Activity (Rattus norvegicus [28]) was 13.11% and 8.91%, the Activity (Rattus norvegicus [29]) was 1.6% and 2.31% and the Activity (Rattus norvegicus [30]) was 1.83% and 2.59%. The Activity (Rattus norvegicus [31]) was 0.96% and 0.08%.
